Holding throughout (experiment): growth of human tumour cells (NCI), 48 h
For experiment [1], the system named is 786-0 renal.
In experiment [2] the test system is COLO 205 colon.
Experiment [3] deals with K-562 leukemia.
Experiment [4] relates to MALME-3M melanoma.
Experiment [5] concerns MDA-MB-231 breast.
The subject of experiment [6] is OVCAR-3 ovarian.
The test system of experiment [7] is RPMI-8226 leukemia.
Experiment [8] deals with SF-268 CNS.
In experiment [9] the test system is SK-MEL-2 melanoma.
The subject of experiment [10] is SNB-75 CNS.

“And” between values parts separate entries of the source, which are not always exact repeats. Equal values may be shown once.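 A five-concentration, 48-hour dose response in 96-well plates underlies each endpoint, interpolated linearly between surrounding concentrations. GI50 marks 50% less growth. The concentration for full growth arrest is given as TGI.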

With `Cc1cc(NC(=O)NC(=O)c2ccccc2NC(=O)CN)ccc1Oc1ncc(Br)cn1`, the GI50 in [1] is 400 nM; in experiment [3] it was 28.5 nM; in [4], below 0.01 µM; in [6], 15.7 nM; in experiment [7] it was 306 nM; in [8], 608 nM. The GI50 in experiment [9] is 21.2 µM. Further, the TGI in experiment [1] is 24.2 µM and 17.8 µM; in experiment [2], 2.24 µM; in experiment [4], 75 µM and 89.6 µM; in experiment [5], 5.17 µM and 14 µM; in [7], 57.1 µM and > 100 µM; in experiment [8], 43.2 µM and 29.5 µM. Besides, the TGI in experiment [9] was 9.7 µM and 52.9 µM; in experiment [10], 3.28 µM.
As to `O=C(NC1(C(=O)O)CC1c1ccccc1)c1ccccc1` (stereo not given), the TGI in [1], in experiment [2], in experiment [3], in experiment [4], in experiment [5] and in experiment [6] was above 100 µM each time. Also, the TGI in [7], in experiment [8], in [9] and in experiment [10] was above 100 µM in each case.
For the molecule `COc1cc(/C=C2\C(=O)Nc3ccccc32)cc(OC)c1OC`, the GI50 in [1] is 23200 nM; in experiment [2], 14500 nM; in [3], 4480 nM; in experiment [4], 67 µM; in [5], 11400 nM; in experiment [6], 25400 nM. Besides, the GI50 is 12000 nM in experiment [7], 955 nM in experiment [8], 17.5 µM in experiment [9] and 15000 nM in experiment [10]. Besides, the TGI in experiment [1] is above 100 µM; in [2], 47.9 µM; in [3], above 100 µM; in experiment [4] it was above 100 µM; in [5], 78.1 µM; in experiment [6], above 100 µM. The TGI was 61.5 µM in experiment [7], above 100 µM in experiment [8], 82.6 µM in experiment [9] and 58.7 µM in [10].
As to `Oc1cc(Cl)ccc1Cc1ccc(Cl)cc1O`, the GI50 in experiment [1] is 18400 nM; in [2] it was 16900 nM; in experiment [3], 5690 nM; in experiment [4] it was 4.32 µM; in experiment [5], 11600 nM; in experiment [6], 3710 nM. Moreover, the GI50 was 6010 nM in [7], 9440 nM in [8], 14.8 µM in [9] and 13500 nM in [10]. In addition, the TGI is 38 µM in experiment [1]; 30.6 µM in experiment [2]; above 100 µM in [3]; 19.2 µM in experiment [4]; 36.3 µM in experiment [5]; 13.9 µM in experiment [6]. Also, the TGI in experiment [7] was above 100 µM; in experiment [8] it was 27.7 µM; in experiment [9] it was 38.8 µM; in [10], 34.4 µM.
Regarding `O=[N+]([O-])/C=C/c1ccc([N+](=O)[O-])cc1`, the GI50 in experiment [1] is 2020 nM; in experiment [2], 1970 nM; in experiment [3], 2400 nM; in experiment [4], 4.23 µM; in [5] it was 2710 nM; in [6], 1840 nM. The GI50 in experiment [7] is 2250 nM; in [8], 3650 nM; in [9], 14.3 µM; in experiment [10], 1870 nM. For the same molecule, the TGI is 3.64 µM in experiment [1]; 4.22 µM in experiment [2]; 12.4 µM in [3]; 15.1 µM in experiment [4]; 8.73 µM in experiment [5]; 3.28 µM in experiment [6]. The TGI worked out at 5.95 µM in experiment [7], 12.9 µM in [8], 28.1 µM in experiment [9] and 4.02 µM in experiment [10].
On to `COc1ccc(-c2ccccc2)cc1-c1c(Nc2cc(Cl)cc(Cl)c2O)c(=O)c1=O`, for which the GI50 was 1840 nM in experiment [1]; 1900 nM in experiment [2]; 1590 nM in [3]; 1.19 µM in experiment [4]; 1200 nM in experiment [5]; 1280 nM in experiment [6]. Moreover, the GI50 is 957 nM in experiment [7], 1310 nM in experiment [8], 1.77 µM in [9] and 1030 nM in [10]. Also, the TGI in experiment [1] is above 50 µM; in experiment [2] it was 44.8 µM; in experiment [3], above 50 µM; in [4], 3.5 µM; in [5] it was 3.17 µM; in [6] it was 3.88 µM. The TGI in experiment [7] is 2.71 µM; in experiment [8] it was above 50 µM; in experiment [9] it was above 50 µM; in [10], 3.61 µM.
For `O=[N+]([O-])c1cccc(-c2cc(-c3cc(Br)ccc3O)[nH]n2)c1`, the GI50 in [1] is 1700 nM; in [2] it was 2230 nM; in experiment [3], 1660 nM; in experiment [4], 2.21 µM; in [5], 2490 nM; in [6], 2100 nM. Further, the GI50 in experiment [7] is 1470 nM; in experiment [8], 2860 nM; in experiment [9], 1.99 µM; in experiment [10], 2680 nM. Moreover, the TGI amounted to 4.08 µM in experiment [1]; 5.16 µM in experiment [2]; 4.57 µM in [3]; 5.52 µM in experiment [4]; 9.87 µM in [5]; 5.8 µM in experiment [6]. Moreover, the TGI in experiment [7] stood at 4.75 µM; in [8], 12.7 µM; in experiment [9], 6.53 µM; in experiment [10] it was 14.5 µM.
As to `Cc1ccc2nc(N/N=C/c3cccc(C)n3)cc(C)c2c1`, the TGI in experiment [1] is 33.7 µM; in experiment [2], 32.6 µM; in [3] it was above 100 µM; in experiment [4], 30.3 µM; in experiment [5], 36 µM; in experiment [6], 30 µM. Also, the TGI was 42.5 µM in experiment [7], 38.7 µM in experiment [8], 34.8 µM in experiment [9] and 36.6 µM in experiment [10].

The record behind these values is PubChem BioAssay (NCI).
